Laboratory results taken from US10711041B2, “Lyophilisate containing a cyclic peptide of formula X1-[sequence]-X2” (priority 2013, dated 2020).

How the values were obtained:
Format in all cases: physicochemical
[1] = Stability investigation of the lyophilisate (visual inspection, reverse HPLC)
Description: For that the lyophilisate was stored up to 24 months at 2 to 8° C. and up to 6 months at 25° C. at 60% relative humidity. Stability was investigated at different time points during that period. In particular the appearance, contents, as well as purity of the cyclic peptides were investigated. For that laboratory-common analytical processes were used, such as e.g. visual inspection and reverse HPLC.

[2] = Chemical stability of condensed aerosol by reverse HPLC/MS; settings: Mesh-Type nebulizer, aerosol condensed in cooling trap
Description: Since proteins and peptides occasionally may be rather unstable, it was investigated, whether the cyclic peptides of amino acid sequence SEQ ID NO:1 to SEQ ID NO:6 in dissolved preparation during conversion into an aerosol remain stable. For that the cyclic peptides were dissolved in water as described in example 4. After filling into the storage container of a nebulizer the aqueous solution of the cyclic peptides were converted into an aerosol. For that a “Mesh-Type” nebulizer was used. The biological activity of the collected aerosols was determined by means of the Patch Clamp method. Thereby macroscopic currents of A549 cells were deduced in the “whole cell” configuration of the “Patch-clamp” technique, as described under “Electrophysiological Investigations of the Amilorid-sensitive Sodium Ion Channel (ENaC)”.
The chemical stability of the condensed aerosols was determined by means of reverse HPLC/MS.

[3] = Aerosol droplet size characterisation (laser diffraction / impactor)
Source text: By means of a nebulizer which converts aqueous solution into an aerosol, also the aqueous solutions of the cyclic peptides of amino acid sequence SEQ ID NO:1 to SEQ ID NO:6 may be converted into aerosols. Such aerosols can be characterized with respect to the medium droplet size, as well as to size distribution of the aerosol droplets. For that conventional methods are used, which are described also in pharmacopoeias. The one analytical method uses the cascade impactor in its actual construction, the “Next Generation Impactor”. Thereby the aerosol is conducted through a series of sieve plates, whereby the diameter of the holes is diminished with each plate and the amount of the holes is increased. In the other analytical method, the laser-diffraction measurement, the droplet sizes are determined by means of laser. The 2 important parameters which are determined during these measurements, one the one hand is the median of the diameter of all droplets, and on the other hand, the amount of droplets having a diameter of ≤5 μm. In the literature that diameter is described as a limit, under which inhaled aerosol particles arrive in fact in the lung.
(§1) It is ramblingly known, that in practice from a generated aerosol only a part is available for the patient. Thus, for determining the amount of aerosol which is available for a user, trials with a breathing simulator were carried out. For investigating the particle size and for the implementation of the breathing simulation an aerosol from an aqueous solution of the cyclic peptide of amino acid sequence SEQ ID NO:1 was used. For generating aerosol different nebulizer types were used. The nebulizers A and B were so called “Mesh-Type nebulizers”.

[4] = Breathing simulator, amount of aerosol available for inhalation; settings: nebulizers Type A and Type B
Description: as §1

C[C@@H]1NC(=O)CNC(=O)[C@H](CCC(=O)O)NC(=O)[C@@H]2CCCN2C(=O)[C@H]([C@@H](C)O)NC(=O)[C@H](CCC(=O)O)NC(=O)[C@H](CCCNC(=N)N)NC(=O)[C@H](CCC(N)=O)NC(=O)CNC(=O)[C@@H](N)CSSC[C@@H](C(=O)O)NC(=O)[C@H](Cc2ccc(O)cc2)NC(=O)[C@H](Cc2c[nH]c3ccccc23)NC(=O)[C@@H]2CCCN2C(=O)[C@H](CCCCN)NC(=O)[C@H](C)NC(=O)[C@H](CCC(=O)O)NC1=O [SEQ ID NO: 1]
Amount/Contents of lyophilisate ([1]; storage 2-8° C., T = 0): 100% | Purity of lyophilisate (stability study) ([1]; storage 2-8° C., T = 0): 96% | Appearence of lyophilisate ([1]; storage 2-8° C., T = 0 to T = 24 M): white powder | Amount/Contents of lyophilisate ([1]; storage 2-8° C., T = 24 M): 99% | Purity of lyophilisate (stability study) ([1]; storage 2-8° C., T = 24 M): 96% | Amount/Contents of lyophilisate ([1]; storage 25° C./60% rH, T = 0): 100% | Purity of lyophilisate (stability study) ([1]; storage 25° C./60% rH, T = 0): 96% | Appearence of lyophilisate ([1]; storage 25° C./60% rH, T = 0 to T = 6 M): white powder | Amount/Contents of lyophilisate ([1]; storage 25° C./60% rH, T = 6 M): 99% | Purity of lyophilisate (stability study) ([1]; storage 25° C./60% rH, T = 6 M): 95% | chemical stability during transformation into an aerosol [2]: keeps its biological, as well as its chemical stability | amount of droplets with a diameter of ≤5 μm in the aerosol ([3]; all nebulizers): at least 50% | Amount of particles with Ø ≤5 μm ([3]; nebulizer Type A): 50% | Median particle diameter of aerosol ([3]; nebulizer Type A): 4.7 μm | Amount of particles with Ø ≤5 μm ([3]; nebulizer Type B): 70% | Median particle diameter of aerosol ([3]; nebulizer Type B): 3.3 μm | Amount of particles with Ø ≤5 μm ([3]; nebulizer Type C): 65% | Median particle diameter of aerosol ([3]; nebulizer Type C): 3.7 μm | part of the aerosol available for inhalation (inhalation filter) [4]: predominant part
